Laboratory results: US11484599B2, “Polymer conjugate vaccines” (The University of Chicago, priority 2015, dated 2022)

How the values were obtained:
TLR7 = biological target: T1, TLR7 (Homo sapiens, UniProt Q9NYK1); experiment: HEK-Blue TLR7-activation reporter cell assay; details: media with 2.0 μM agonist (polymer: 2.0 μM of TLR7-MA in polymeric form), 12 h
T1 sequence (Q9NYK1 27-1049): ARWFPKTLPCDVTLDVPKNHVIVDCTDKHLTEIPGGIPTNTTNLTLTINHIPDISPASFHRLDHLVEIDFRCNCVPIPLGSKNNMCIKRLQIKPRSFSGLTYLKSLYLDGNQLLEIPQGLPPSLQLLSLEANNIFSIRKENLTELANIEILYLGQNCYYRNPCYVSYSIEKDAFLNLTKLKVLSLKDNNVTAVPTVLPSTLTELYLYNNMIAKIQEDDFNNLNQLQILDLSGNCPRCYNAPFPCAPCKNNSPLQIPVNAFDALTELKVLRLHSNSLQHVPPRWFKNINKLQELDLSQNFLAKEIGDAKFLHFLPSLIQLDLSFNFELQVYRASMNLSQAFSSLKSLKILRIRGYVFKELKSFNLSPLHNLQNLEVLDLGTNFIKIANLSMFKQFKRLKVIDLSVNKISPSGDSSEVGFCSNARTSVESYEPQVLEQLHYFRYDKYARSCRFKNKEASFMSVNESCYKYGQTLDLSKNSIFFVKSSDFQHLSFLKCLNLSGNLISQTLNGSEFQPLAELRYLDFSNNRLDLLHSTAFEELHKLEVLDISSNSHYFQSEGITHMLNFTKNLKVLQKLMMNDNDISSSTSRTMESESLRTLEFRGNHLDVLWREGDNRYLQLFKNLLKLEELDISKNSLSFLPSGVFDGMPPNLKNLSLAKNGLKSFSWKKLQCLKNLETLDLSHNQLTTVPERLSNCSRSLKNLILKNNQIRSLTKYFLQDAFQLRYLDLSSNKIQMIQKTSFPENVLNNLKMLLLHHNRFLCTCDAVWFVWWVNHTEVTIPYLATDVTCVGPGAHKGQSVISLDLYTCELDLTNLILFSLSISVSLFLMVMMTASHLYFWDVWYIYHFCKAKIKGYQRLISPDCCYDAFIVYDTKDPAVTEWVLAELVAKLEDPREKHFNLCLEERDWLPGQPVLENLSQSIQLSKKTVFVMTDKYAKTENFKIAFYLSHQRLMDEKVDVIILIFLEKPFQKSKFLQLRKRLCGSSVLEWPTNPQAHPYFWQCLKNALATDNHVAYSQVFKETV

[1] = system: bone marrow derived dendritic cells (BMDCs); experiment: Viability / toxicity in treated BMDCs; format: cell-based; details: 10 μM
Source text: Given that DCs are the primary target for the polymer-conjugates, Applicants treated bone marrow derived dendritic cells (BMDCs) with various concentrations of TLR7-MA, p(man-TLR), or the synthetic oligonucleotide CpG, a powerful TLR-9 agonist.

[2] = system: lymph node resident DC subsets; experiment: Uptake of fluorescently labeled OVA by lymph node DC subsets after i.d. injection; format: in vivo, mice; details: 12 h
Experimental: Mice were treated with an intradermal injection of fluorescently labeled OVA or fluorescently labeled OVA conjugated to either p(Man) or p(Man-TLR). After 12 h, the lymph nodes of the animals were harvested and the cells of the lymph nodes were analyzed for fluorescently labeled OVA content via flow cytometry. Conjugation of OVA to p(Man-TLR) increases the uptake of OVA by CD8+ cross-presenting DCs (a.), CD4+ activating DCs (b.), CD4−/CD8− lymph node resident DCs (c.), and conventional dermal DCs (d.).
It is contemplated that conjugating p(Man-TLR) to antigens will improve their uptake by DCs and increased DC activation. […] After 12 h, the lymph node resident DC subsets of these animals were analyzed for fOVA.

[3] = system: circumsporozite protein (CSP) from Plasmodium falciparum; experiment: Example 12: vaccination with malaria antigen CSP formulations, cellular and humoral response; format: in vivo, mice
Experimental: FIG. 17: To characterize the response to an actual vaccinal antigen, and to compare to an advanced clinical adjuvant, the inventors made the polymer conjugate formulation with the P. falciparum antigen CSP (the full-length protein).
FIG. 18: To characterize humoral responses to the CSP-p(Man-TLR) polymer conjugate formulation, Tfh cells were characterized in the spleen and IgG concentrations were measured in the blood.
The inventors benchmarked the performance of antigen-p(Man-TLR) conjugates against other vaccine adjuvant formulations that have been reported to produce effective immune responses, using a malaria antigen, specifically circumsporozite protein (CSP) from Plasmodium falciparum. Mice were treated on days 0 and 21 via intradermal injection into the 4 footpads with CSP-p(Man-TLR), CSP and MPLA/QS-21 liposomes (AS01E), CSP and the adjuvant R848, CSP and poly(I:C), or saline (Vehicle). AS01E is used in a clinical malaria vaccine formulation. All animals treated with formulations containing CSP received 10 μg of CSP. Animals treated with CSP-p(Man-TLR) received 20 μg TLR agonist in the polymeric form. Animals treated with AS01E received 2.5 μg of QS21. Animals treated with CSP and R848 were treated with 20 μg of R848. Animals treated with CSP and poly(I:C) received 15 μg poly(I:C). […] CSP-p(Man-TLR) induced a robust humoral response.

CSP peptide stretches = experiment: Breadth of IgG response on arrays of peptides from the sequence of CSP; format: in vivo, mice

C=C(C)C(=O)NCCOC(=O)NCc1ccc(Cn2c(COCC)nc3c(N)nc4ccccc4c32)cc1 [TLR7-MA, 2-methacrylamidoethyl 4-((4-amino-2-(ethoxymethyl)-1H-imidazo[4,5-c]quinolin-1-yl)methyl)benzylcarbamate]
increase in TLR7 activation (TLR7): 4 fold | cell viability / toxicity [1]: no significant decrease in viability

fOVA-p(Man-TLR): fluorescently labeled Ovalbumin (fOVA) conjugated to p(Man-TLR)
fOVA positive CD8+ cross presenting DCs vs fOVA ([2]; FIG. 9A): More than twice as many | increase in number of CD4 activating DCs positive for fOVA vs fOVA ([2]; FIG. 9B): 3 fold | targeting of double negative DCs and dermal conventional DCs vs free fOVA ([2]; FIG. 9C-D): able to target both double negative DCs and dermal conventional DCs | OVA uptake by DCs vs fOVA ([2]; lymph node DCs): took up significantly more OVA

B1: CSP-p(Man-TLR): P. falciparum circumsporozite protein (CSP, full-length) conjugated to p(Man-TLR) (conjugate, UniProt P02893 1-412, looked up)
chain: MMRKLAILSVSSFLFVEALFQEYQCYGSSSNTRVLNELNYDNAGTNLYNELEMNYYGKQENWYSLKKNSRSLGENDDGNNNNGDNGREGKDEDKRDGNNEDNEKLRKPKHKKLKQPGDGNPDPNANPNVDPNANPNVDPNANPNVDPNANPNANPNANPNANPNANPNANPNANPNANPNANPNANPNANPNANPNANPNANPNANPNVDPNANPNANPNANPNANPNANPNANPNANPNANPNANPNANPNANPNANPNANPNANPNANPNANPNANPNANPNANPNKNNQGNGQGHNMPNDPNRNVDENANANNAVKNNNNEEPSDKHIEQYLKKIKNSISTEWSPCSVTCGNGIQVRIKPGSANKPKDELDYENDIEKKICKMEKCSSVFNVVNSSIGLIMVLSFLFLN
modifications: full-length p(Man-TLR) polymer conjugate
IFNγ+CD8+ cells in the lymph nodes vs CSP and R848 and CSP and AS01E ([3]; days 0 and 21): induced more IFNγ+CD8+ cells in the lymph nodes | splenic T follicular helper cells and total IgG response in the blood vs other treatments ([3]; days 0 and 21): generated more splenic T follicular helper cells and a more robust total IgG response in the blood | IFNγ+ and TNFα+ CD4+ T cells in the spleen vs other therapies ([3]; intradermal, 4 footpads, days 0 and 21, 10 μg CSP, 20 μg TLR agonist): induces more IFNγ+ and TNFα+ cCD4+ T cells in the spleen | highest value in the plot of antibody response to CSP regions (CSP peptide stretches; FIG. 21): approx. 60000 units | breadth of IgG response (CSP peptide stretches; antibodies binding to CSP peptide arrays): induced a broader and/or qualitatively distinct IgG response
